The target in test [1] is T1, human orexin 2 receptor (Homo sapiens, UniProt O43614).
T1 construct: expressed in transfected cells
T1 sequence (O43614 1-444): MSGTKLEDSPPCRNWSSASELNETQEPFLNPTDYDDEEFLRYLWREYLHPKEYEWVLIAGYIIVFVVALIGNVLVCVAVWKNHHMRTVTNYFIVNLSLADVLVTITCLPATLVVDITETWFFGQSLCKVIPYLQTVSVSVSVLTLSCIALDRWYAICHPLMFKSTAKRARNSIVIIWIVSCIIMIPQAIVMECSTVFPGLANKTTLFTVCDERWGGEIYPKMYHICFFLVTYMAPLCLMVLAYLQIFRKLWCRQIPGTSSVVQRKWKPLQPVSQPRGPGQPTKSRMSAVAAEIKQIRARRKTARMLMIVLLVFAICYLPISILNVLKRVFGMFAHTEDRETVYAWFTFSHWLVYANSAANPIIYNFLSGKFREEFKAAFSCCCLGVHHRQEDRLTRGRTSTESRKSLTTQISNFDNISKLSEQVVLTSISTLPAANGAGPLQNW
Nature of the test: Calcium accumulation in cells (FLIPR), antagonism of orexin A, human orexin 2 receptor. Particulars: calcium accumulation, antagonism of orexin A, Cheng-Prusoff corrected; read-out: FLIPR hOx2R Ki. The class given is cell-based.

For test [2], the target named is T1, human orexin 2 receptor. Nature of the test: Radioligand binding assay ([3H]-SB649868 competition), human orexin 2 receptor. The note with it: radioligand [3H]-SB649868; read-out: Binding hOx2R Kd. The method in brief:
(§1)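 Competition binding against roughly 1 nM [3H]-SB649868, run in triplicate for 1 h at room temperature on CHO or HEK membranes bearing human receptor (10 mM HEPES pH 7.5, 0.5% BSA, 5 mM MgCl2, 1 mM CaCl2, 0.05% tween). Bound radioactivity after vacuum filtration; almorexant 10 μM for non-specific binding; expressed as Kd.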

Test [3] deals with T2, human orexin 1 receptor (Homo sapiens, UniProt O43613).
T2 construct: expressed in transfected cells
T2 sequence (O43613 1-425): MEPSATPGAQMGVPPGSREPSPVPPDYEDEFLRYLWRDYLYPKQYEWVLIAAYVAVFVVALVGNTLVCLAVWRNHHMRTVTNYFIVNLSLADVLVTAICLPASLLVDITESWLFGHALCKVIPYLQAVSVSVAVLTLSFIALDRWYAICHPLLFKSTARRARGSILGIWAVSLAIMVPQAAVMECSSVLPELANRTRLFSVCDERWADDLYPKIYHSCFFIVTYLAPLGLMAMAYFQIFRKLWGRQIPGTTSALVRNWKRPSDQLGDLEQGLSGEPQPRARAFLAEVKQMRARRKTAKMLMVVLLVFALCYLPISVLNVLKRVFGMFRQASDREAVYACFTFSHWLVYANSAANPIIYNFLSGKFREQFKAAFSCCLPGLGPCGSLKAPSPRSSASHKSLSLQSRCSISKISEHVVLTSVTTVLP
Nature of the test: Radioligand binding assay ([3H]-SB649868 competition), human orexin 1 receptor. The note with it: radioligand [3H]-SB649868; read-out: Binding hOx1R Kd. The method in brief:
as §1

Test [4] deals with T2, human orexin 1 receptor. Nature of the test: Calcium accumulation in cells (FLIPR), antagonism of orexin A, human orexin 1 receptor. The class given is cell-based. Particulars: for Ki: calcium accumulation, antagonism of orexin A, Cheng-Prusoff corrected, read-out: FLIPR hOx1R Ki.

For `Cc1cc(C)nc(N2CCC3(CC2)OCCN(Cc2ccccc2-c2nc(C)no2)C3=O)n1` [Example 2.10, 9-(4,6-Dimethylpyrimidin-2-yl)-4-(2-(3-methyl-1,2,4-oxadiazol-5-yl)benzyl)-1-oxa-4,9-diazaspiro[5.5]undecan-5-one], the inhibition constant (Ki) on human orexin 2 receptor [1] amounted to 72 nM. The dissociation constant (Kd) on human orexin 2 receptor [2] was found to be 144 nM; on human orexin 1 receptor [3] it was 4610 nM. Also, on human orexin 1 receptor [4] (measured at a concentration of 10 μM of compound, read-out: FLIPR hOx1R % inhibition), the inhibition at 10 µM came to 35%.
Take `Cc1cc(C)nc(N2CCC3(CC2)OCCN(Cc2nn(C)cc2-c2ccccc2)C3=O)n1` [Example 2.11, 9-(4,6-Dimethylpyrimidin-2-yl)-4-((1-methyl-4-phenyl-1H-pyrazol-3-yl)methyl)-1-oxa-4,9-diazaspiro[5.5]undecan-5-one]: the Ki at human orexin 2 receptor [1] came to 75 nM; on human orexin 1 receptor [4] it was 2320 nM. Moreover, the figures for the Kd on human orexin 2 receptor [2] and at human orexin 1 receptor [3] were 229 nM and 3180 nM, respectively.
On the same counts, the results for `Cc1cc(C)nc(N2CCC3(CC2)OCCN(Cc2n[nH]cc2-c2ccccc2)C3=O)n1` [Example 2.13, 9-(4,6-Dimethylpyrimidin-2-yl)-4-((4-phenyl-1H-pyrazol-3-yl)methyl)-1-oxa-4,9-diazaspiro[5.5]undecan-5-one] are 38 nM, 1500 nM, 143 nM and 1560 nM.
Taken in the same sequence, the figures for `COc1cccc(-c2n[nH]nc2CN2CCOC3(CCN(c4nc(C)cc(C)n4)CC3)C2=O)c1` [Example 2.17, 9-(4,6-Dimethylpyrimidin-2-yl)-4-((5-(3-methoxyphenyl)-2H-1,2,3-triazol-4-yl)methyl)-1-oxa-4,9-diazaspiro[5.5]undecan-5-one] were 1 nM, 220 nM, 16 nM and 363 nM.
With `COc1cc(C)nc(N2CCC3(CC2)OCCN(Cc2c[nH]c4ccccc24)C3=O)n1` [Example 2.18, 4-((1H-Indol-3-yl)methyl)-9-(4-methoxy-6-methylpyrimidin-2-yl)-1-oxa-4,9-diazaspiro[5.5]undecan-5-one], the figures for the Ki on human orexin 2 receptor [1] and at human orexin 1 receptor [4] were 4 nM and 383 nM, respectively. Also, the Kd at human orexin 2 receptor [2] amounted to 23 nM; at human orexin 1 receptor [3] it was 625 nM.
Taken in the same sequence, the figures for `COc1cc(C)nc(N2CCC3(CC2)OCCN(Cc2c[nH]c4ncccc24)C3=O)n1` [Example 2.19, 4-((1H-Pyrrolo[2,3-b]pyridin-3-yl)methyl)-9-(4-methoxy-6-methylpyrimidin-2-yl)-1-oxa-4,9-diazaspiro[5.5]undecan-5-one] were 35 nM, 1490 nM, 184 nM and 3520 nM.
Taken in the same sequence, the figures for `COc1cccc(-c2ocnc2CN2CCOC3(CCN(c4nc(C)cc(OC)n4)CC3)C2=O)c1` [Example 2.20, 9-(4-Methoxy-6-methylpyrimidin-2-yl)-4-((5-(3-methoxyphenyl)oxazol-4-yl)methyl)-1-oxa-4,9-diazaspiro[5.5]undecan-5-one] were 2 nM, 43 nM, 7 nM and 57 nM.
As to `CCc1cc(C)nc(N2CCC3(CC2)OCCN(Cc2c[nH]c4ccccc24)C3=O)n1` [Example 2.23, 4-((1H-indol-3-yl)methyl)-9-(4-ethyl-6-methylpyrimidin-2-yl)-1-oxa-4,9-diazaspiro[5.5]undecan-5-one], the values for the Ki at human orexin 2 receptor [1] and at human orexin 1 receptor [4] were 37 nM and 582 nM, respectively. In addition, the results for the equilibrium dissociation constant (Kd) at human orexin 2 receptor [2] and at human orexin 1 receptor [3] were 68 nM and 1570 nM, respectively.
Taken in the same sequence, the figures for `O=C1N(Cc2c[nH]c3ccccc23)CCC12CCN(c1cnc3ccccc3n1)CC2` [Example 3.2, 2-((1H-Indol-3-yl)methyl)-8-(quinoxalin-2-yl)-2,8-diazaspiro[4.5]decan-1-one] were 41 nM, 1060 nM, 121 nM and 920 nM.
On the same counts, the results for `COc1cc(C)nc(N2CCC3(CCN(Cc4ccccc4-c4nc(C)no4)C3=O)CC2)n1` [Example 3.20, 8-(4-Methoxy-6-methyl-pyrimidin-2-yl)-2-[2-(3-methyl-[1,2,4]oxadiazol-5-yl)-benzyl]-2,8-diaza-spiro[4.5]decan-1-one] are 43 nM, 1640 nM, 328 nM and 7670 nM.
Regarding `COc1cc(C)nc(N2CCC3(CCN(Cc4nn(C)nc4-c4ccccc4)C3=O)C2)n1` (stereo not shown) [Example 5.43, 7-(4-methoxy-6-methylpyrimidin-2-yl)-2-((2-methyl-5-phenyl-2H-1,2,3-triazol-4-yl)methyl)-2,7-diazaspiro[4.4]nonan-1-one], the figures for the inhibitory constant (Ki) at human orexin 2 receptor [1] and at human orexin 1 receptor [4] were 29 nM and 421 nM, respectively. Moreover, the Kd came out at 118 nM at human orexin 2 receptor [2] and 339 nM on human orexin 1 receptor [3].
On the same counts, the results for `COc1cc(C)nc(N2CCC3(CCN(Cc4nn(C)nc4-c4cccc(C)c4)C3=O)C2)n1` (stereo not shown) [Example 5.44, 7-(4-methoxy-6-methylpyrimidin-2-yl)-2-((2-methyl-5-(m-tolyl)-2H-1,2,3-triazol-4-yl)methyl)-2,7-diazaspiro[4.4]nonan-1-one] are 3.4 nM, 68 nM, 20 nM and 106 nM.
On the same counts, the results for `COc1cccc(-c2nn(C)nc2CN2CCC3(CCN(c4nc(C)cc(OC)n4)C3)C2=O)c1` (stereo not shown) [Example 5.45, 7-(4-methoxy-6-methylpyrimidin-2-yl)-2-((5-(3-methoxyphenyl)-2-methyl-2H-1,2,3-triazol-4-yl)methyl)-2,7-diazaspiro[4.4]nonan-1-one] are 2.8 nM, 29 nM, 21 nM and 97 nM.
On the same counts, the results for `CN(C)c1cc(C(F)(F)F)nc(N2CCC3(CCN(Cc4c[nH]c5ccccc45)C3=O)C2)n1` (stereo not shown) [Example 5.47, 2-((1H-indol-3-yl)methyl)-7-(4-(dimethylamino)-6-(trifluoromethyl)pyrimidin-2-yl)-2,7-diazaspiro[4.4]nonan-1-one] are 97 nM, 193 nM, 518 nM and 1030 nM.
Consider `COc1cc(C)nc(N2CCC3(CCCN(Cc4c[nH]c5ccccc45)C3=O)C2)n1` (stereo not shown) [Example 7.1, 7-((1H-Indol-3-yl)methyl)-2-(4-methoxy-6-methylpyrimidin-2-yl)-2,7-diazaspiro[4.5]decan-6-one], for which the inhibition constant Ki on human orexin 2 receptor [1] turned out to be 10 nM; on human orexin 1 receptor [4], 31 nM. Further, the equilibrium dissociation constant (Kd) at human orexin 2 receptor [2] is 13 nM; at human orexin 1 receptor [3], 14 nM.
On the same counts, the results for `COc1ccnc(N2CCC3(CCCN(Cc4c[nH]c5ccccc45)C3=O)C2)n1` (stereo not shown) [Example 7.4, 7-((1H-Indol-3-yl)methyl)-2-(4-methoxypyrimidin-2-yl)-2,7-diazaspiro[4.5]decan-6-one] are 59 nM, 317 nM, 152 nM and 201 nM.
Taken in the same sequence, the figures for `COc1cccc(-c2n[nH]nc2CN2CCCC3(CCN(c4nccc(OC)n4)C3)C2=O)c1` (stereo not shown) [Example 7.6, 7-((5-(3-Methoxyphenyl)-2H-1,2,3-triazol-4-yl)methyl)-2-(4-methoxypyrimidin-2-yl)-2,7-diazaspiro[4.5]decan-6-one] were 65 nM, 189 nM, 170 nM and 187 nM.
For the compound `Cc1ccnc(N2CCC3(CCCN(Cc4c[nH]c5ccccc45)C3=O)C2)n1` (stereo not shown) [Example 7.11, 7-((1H-indol-3-yl)methyl)-2-(4-methylpyrimidin-2-yl)-2,7-diazaspiro[4.5]decan-6-one], the Ki at human orexin 2 receptor [1] is 38 nM; on human orexin 1 receptor [4] it was 304 nM. Further, the dissociation constant (Kd) was found to be 73 nM at human orexin 2 receptor [2] and 89 nM on human orexin 1 receptor [3].
On the same counts, the results for `COc1cc(C)nc(N2CCC3(CCCN(Cc4n[nH]c5ccccc45)C3=O)C2)n1` (stereo not shown) [Example 7.12, 7-((1H-indazol-3-yl)methyl)-2-(4-methoxy-6-methylpyrimidin-2-yl)-2,7-diazaspiro[4.5]decan-6-one] are 48 nM, 309 nM, 138 nM and 173 nM.

One may read the Ki as the equilibrium dissociation constant of an inhibitor or competing ligand from its target. The Kd is the concentration at which binding is half-saturated. As usually defined, the inhibition is the percentage by which the read-out fell short of the control.

For the origin of these results see US20120165331A1, “Di/tri-aza-spiro-C9-C11alkanes” (priority 2010, published 2012).
